Assay results published in patent EP0351597A2, “"N15-alkyl and N15,N15-di-alkyl derivatives of teicoplanin antibiotics carrying functional groups on the alkyl side chain” (GRUPPO LEPETIT S.p.A., priority 1988, dated 1990).
In brackets after ≈: the same amount, converted by molar mass. Read-outs that look alike come from different tables or passages of the source.

Experiments:
S. aureus Tour = experiment: In vitro antibacterial activity (MIC), standard dilution test; type: cell-based
Source text: Isosensitest broth (Oxoid) and Todd-Hewitt broth (Difco) are used for growing staphylococci and streptococci, respectively. […]

[1] = test system: S. epidermidis ATCC 12228; experiment: as above; type: cell-based
Procedure: (§1) Isosensitest broth (Oxoid) and Todd-Hewitt broth (Difco) are used for growing staphylococci and streptococci, respectively. Broth cultures are diluted so that the final inoculum is about 10⁴ colony forming units/ml (CFU/ml).

S. faecalis ATCC 7080 = experiment: as above; type: cell-based
Procedure: as §1

S. haemolyticus L 602 = experiment: as above; type: cell-based
Procedure: as §1

S. pneumoniae UC41 = experiment: as above; type: cell-based
Procedure: as §1

S. pyogenes C203 = experiment: as above; type: cell-based
Procedure: as §1

E. coli SKF 12140 = experiment: as above; type: cell-based
[2] = test system: P. vulgaris X19H ATCC 881; experiment: as above; type: cell-based
P. aeruginosa ISM = experiment: as above; type: cell-based
S. pyogenes L 49 = experiment: In vivo test in mice experimentally infected with S. pyogenes L 49 (ED50)
Procedure: The ED₅₀ values (mg/Kg) of representative compounds of the invention in vivo tests in mice experimentally infected with S. pyogenes L 49 and reported in Table V were carried out according to the procedure described by V. Arioli et al., Journal of Antibiotics 29, 511 (1976).

Acid-base titration = type: physicochemical; conditions: Methylcellosolve/H₂O, 4/1 (v/v); titrated with 0.01 N NaOH after adding 0.01 N HCl
[3] = Staphylococcus aureus, S. aureus Tour 10^4, read-out: MIC
[4] = Staphylococcus aureus, S. aureus Tour 10^6, read-out: MIC
[5] = Staphylococcus aureus, S. aureus Tour + 30% bovine serum, read-out: MIC
[6] = Staphylococcus epidermidis, ATCC12228, read-out: MIC
[7] = Enterococcus faecalis, ATCC7080, read-out: MIC
[8] = Staphylococcus haemolyticus, L602, S. haemolyticus L 602, no visible growth after 18-24 h at 37°C, inoculum about 10⁴ CFU/ml, read-out: MIC
[9] = Streptococcus pneumoniae, read-out: MIC
[10] = Streptococcus pyogenes, read-out: MIC
[11] = Escherichia coli, SKF12140, read-out: MIC
[12] = Proteus vulgaris, ATCC881, read-out: MIC
[13] = Pseudomonas aeruginosa, read-out: MIC
[14] = Streptococcus pyogenes, L49, sc, S. pyogenes L 49, s.c., read-out: ED50
[15] = S. aureus Tour + 30% bovine serum
[16] = S. haemolyticus L 602, no visible growth after 18-24 h at 37°C, inoculum about 10⁴ CFU/ml

Molecule	MIC (S. aureus Tour; [3]) [µg/mL]	MIC (S. aureus Tour; [4]) [µg/mL]	MIC (S. aureus Tour; [5]) [µg/mL]	MIC [1, 6] [µg/mL]	MIC (S. faecalis ATCC 7080; [7]) [µg/mL]	MIC (S. pneumoniae UC41; [9]) [µg/mL]	MIC (S. pyogenes C203; [10]) [µg/mL]	MIC (S. aureus Tour; S. aureus Tour 10^4) [microgram/ml]	MIC (S. aureus Tour; S. aureus Tour 10^6) [microgram/ml]	MIC (S. aureus Tour; [15]) [microgram/ml]	MIC [1] [microgram/ml]	MIC (S. faecalis ATCC 7080) [microgram/ml]	MIC (S. haemolyticus L 602; [16]) [microgram/ml]	MIC (S. pneumoniae UC41) [microgram/ml]	MIC (S. pyogenes C203) [microgram/ml]	MIC (E. coli SKF 12140) [microgram/ml]	MIC [2] [microgram/ml]	MIC (P. aeruginosa ISM) [microgram/ml]	pK₁ (Acid-base titration)	pK₂ (Acid-base titration)	other results
CC(CO)NC1C(=O)NC2Cc3ccc(c(Cl)c3)Oc3cc4cc(c3O)Oc3ccc(cc3Cl)C(O)C3NC(=O)C(NC(=O)C4NC(=O)C(NC2=O)c2cc(O)cc(c2)Oc2cc1ccc2O)c1ccc(O)c(c1)-c1c(O)cc(O)cc1C(C(=O)O)NC3=O (stereo not drawn) [Compound 7, N¹⁵-(1-methyl-2-hydroxy)ethyl teicoplanin aglycon]	0.06 (≈ 0.0477 µM)	0.12 (≈ 0.0955 µM)	1	0.06 (≈ 0.0477 µM)	0.25 (≈ 0.199 µM)	0.12 (≈ 0.0955 µM)	0.12 (≈ 0.0955 µM)														MIC (S. haemolyticus L 602; [8]): 0.5 µg/mL (≈ 0.398 µM); MIC (E. coli SKF 12140; [11]): > 128 µg/mL; MIC [2, 12]: > 128 µg/mL; MIC (P. aeruginosa ISM; [13]): > 128 µg/mL; ED50 (S. pyogenes L 49; [14]): 0.84 mg/kg
N¹⁵-(2-methoxyethoxy)methyl teicoplanin [Compound 4]								0.12	0.5	1	0.125	0.125	8	0.125	0.06	>128	>128	>128			
CC(O)C(C)NC1C(=O)NC2Cc3ccc(c(Cl)c3)Oc3cc4cc(c3O)Oc3ccc(cc3Cl)C(O)C3NC(=O)C(NC(=O)C4NC(=O)C(NC2=O)c2cc(O)cc(c2)Oc2cc1ccc2O)c1ccc(O)c(c1)-c1c(O)cc(O)cc1C(C(=O)O)NC3=O (stereo not drawn) [Compound 8, N¹⁵-(1-methyl-2-hydroxy)propyl teicoplanin aglycon]	0.12 (≈ 0.0944 µM)	0.12 (≈ 0.0944 µM)	2	0.06 (≈ 0.0472 µM)	0.12 (≈ 0.0944 µM)	0.25 (≈ 0.197 µM)	0.12 (≈ 0.0944 µM)														MIC (S. haemolyticus L 602; [8]): 0.5 µg/mL (≈ 0.393 µM); MIC (E. coli SKF 12140; [11]): > 128 µg/mL; MIC [2, 12]: > 128 µg/mL; MIC (P. aeruginosa ISM; [13]): > 128 µg/mL; ED50 (S. pyogenes L 49; [14]): 0.86 mg/kg
N¹⁵-(2,3-Dihydroxy)propyl teicoplanin [Compound 1]								0.5	2	2	0.25	0.12	32	0.25	0.06	>128	>128	>128	4.7	6	
N¹⁵-(1-methyl-2-hydroxy)propyl) teicoplanin [Compound 2]								0.5	1	2	0.25	0.12	16	0.25	0.06	>128	>128	>128	5.05	6.35	
CN(C)CCNC1C(=O)NC2Cc3ccc(c(Cl)c3)Oc3cc4cc(c3O)Oc3ccc(cc3Cl)C(O)C3NC(=O)C(NC(=O)C4NC(=O)C(NC2=O)c2cc(O)cc(c2)Oc2cc1ccc2O)c1ccc(O)c(c1)-c1c(O)cc(O)cc1C(C(=O)O)NC3=O (stereo not drawn) [Compound 5, N¹⁵-(2-dimethylamino)ethyl teicoplanin aglycon]	0.125 (≈ 0.0984 µM)	0.125 (≈ 0.0984 µM)	1	0.06 (≈ 0.0472 µM)	0.25 (≈ 0.197 µM)	0.125 (≈ 0.0984 µM)	0.25 (≈ 0.197 µM)												4.75	6.5	MIC (S. haemolyticus L 602; Staphylococcus haemolyticus, L602): 0.5 µg/mL (≈ 0.394 µM); MIC (E. coli SKF 12140; [11]): > 128 µg/mL; MIC [2, 12]: > 128 µg/mL; MIC (P. aeruginosa ISM; [13]): > 128 µg/mL; ED50 (S. pyogenes L 49; [14]): 1.25 mg/kg
N¹⁵-(2-dimethylamino)ethyl teicoplanin [Compound 3]								0.125	0.5	0.5	0.125	0.125	2	0.125	0.125	>128	>128	>128	4.85	6.2	ED50 (S. pyogenes L 49; S. pyogenes L 49, o.s.): >300 mg/kg; ED50 (S. pyogenes L 49; S. pyogenes L 49, s.c.): 0.41 mg/kg; pK₃ (Acid-base titration): 8.45
N¹⁵-(1-methyl-2-hydroxy)ethyl teicoplanin [Compound 6]								0.25	1	2	0.5	0.12	1.6	0.25	0.12	>128	>128	>128			
